Results published in patent US5733719A, “Method of making an assay compound” (priority 1995, dated 1998).

Experiments:
Grans = experiment: Peptidases to distinguish leukemia from non-leukemia, granulocytes; assay type: cell-based, human; set-up: unit not given here
Description: (§1) Artificial intelligence was used to analyze data of cellular enzyme functions, and determine normal and disease states. Peptidases were used to distinguish leukemia from non-leukemia (output pattern). For input patterns lymphocyte and granulocyte cell types were used with aminopeptidases, cathepsins and dipeptidylpeptidase enzyme activities. In this Example, illustrated in Tables 6A-6C, three normals and three leukemia patients were used as known output patterns for the neural network to learn (in practice, the larger the learning set the more accurate unknown prediction will be). Unknowns were then presented to the learned algorithm as shown in the test case examples. Clinical diagnosis was confirmed by physicians. The trained neural network was able to correctly classify the leukemia from the non-leukemia.

Lymphs = experiment: Peptidases to distinguish leukemia from non-leukemia, lymphocytes; assay type: cell-based, human; set-up: unit not given here
Description: as §1

## C[C@H](N)C(=O)Nc1ccc2c(c1)Oc1cc(NC(=O)[C@H](C)N)ccc1C21OC(=O)c2ccccc21 [ALA, (Ala)2 Rho 110]
Grans; J4 11/21/91 acute leuk.
  enzyme activity: 193.43
Grans; J4 12/2/91 AL
  enzyme activity: 139.53
Grans; J4 12/3/91 acute leuk.
  enzyme activity: 138.89
Grans; J5 11/27/91 AML
  enzyme activity: 194.85
Grans; J19 11/27/91 CLL
  enzyme activity: 143.11
Grans; J22 12/2/91 AML
  enzyme activity: 157.12
Grans; J22 12/9/91 AML
  enzyme activity: 157.48
Grans; N99° normal
  enzyme activity: 157.30
Grans; N191 normal
  enzyme activity: 177.32
Grans; N192 normal
  enzyme activity: 154.84
Grans; N193 normal
  enzyme activity: 178.64
Grans; N194 normal
  enzyme activity: 164.00
Grans; N195 normal
  enzyme activity: 221.28
Grans; N197 normal
  enzyme activity: 188.20
Grans; N200 normal
  enzyme activity: 171.06
Grans; N201 normal
  enzyme activity: 206.06
Grans; N202 normal
  enzyme activity: 201.17
Grans; N206 normal
  enzyme activity: 232.57
Grans; P68 tachycardia
  enzyme activity: 276.07
Grans; P69 pancreatic CA
  enzyme activity: 204.02
Grans; P70 cirrhosis/hemobilia
  enzyme activity: 236.23
Grans; P71 ac. pyelonephritis
  enzyme activity: 185.37
Lymphs; J4 11/21/91 acute leuk.
  enzyme activity: 86.00
Lymphs; J4 12/2/91 AL
  enzyme activity: 68.10
Lymphs; J4 12/3/91 acute leuk.
  enzyme activity: 74.64
Lymphs; J5 11/27/91 AML
  enzyme activity: 92.44
Lymphs; J19 11/27/91 CLL
  enzyme activity: 47.78
Lymphs; J22 12/2/91 AML
  enzyme activity: 84.42
Lymphs; J22 12/9/91 AML
  enzyme activity: 83.48
Lymphs; N99° normal
  enzyme activity: 91.07
Lymphs; N191 normal
  enzyme activity: 95.72
Lymphs; N192 normal
  enzyme activity: 103.31
Lymphs; N193 normal
  enzyme activity: 100.50
Lymphs; N194 normal
  enzyme activity: 97.02
Lymphs; N195 normal
  enzyme activity: 118.81
Lymphs; N197 normal
  enzyme activity: 96.36
Lymphs; N200 normal
  enzyme activity: 101.38
Lymphs; N201 normal
  enzyme activity: 106.72
Lymphs; N202 normal
  enzyme activity: 118.37
Lymphs; N206 normal
  enzyme activity: 122.71
Lymphs; P68 tachycardia
  enzyme activity: 1471.10
Lymphs; P69 pancreatic CA
  enzyme activity: 130.34
Lymphs; P70 cirrhosis/hemobilia
  enzyme activity: 141.87
Lymphs; P71 ac. pyelonephritis
  enzyme activity: 109.26

## NCC(=O)N1CCC[C@H]1C(=O)Nc1ccc2c(c1)Oc1cc(NC(=O)[C@@H]3CCCN3C(=O)CN)ccc1C21OC(=O)c2ccccc21 [GP]
Grans; J4 11/21/91 acute leuk.
  enzyme activity: 10.75
Grans; J4 12/2/91 AL
  enzyme activity: 11.08
Grans; J4 12/3/91 acute leuk.
  enzyme activity: 1.28
Grans; J5 11/27/91 AML
  enzyme activity: 8.95
Grans; J19 11/27/91 CLL
  enzyme activity: 1.39
Grans; J22 12/2/91 AML
  enzyme activity: 13.98
Grans; J22 12/9/91 AML
  enzyme activity: 11.52
Grans; N99° normal
  enzyme activity: 13.41
Grans; N191 normal
  enzyme activity: 11.20
Grans; N192 normal
  enzyme activity: 11.22
Grans; N193 normal
  enzyme activity: 8.87
Grans; N194 normal
  enzyme activity: 12.49
Grans; N195 normal
  enzyme activity: 13.31
Grans; N197 normal
  enzyme activity: 15.85
Grans; N200 normal
  enzyme activity: 12.74
Grans; N201 normal
  enzyme activity: 15.92
Grans; N202 normal
  enzyme activity: 14.44
Grans; N206 normal
  enzyme activity: 17.96
Grans; P68 tachycardia
  enzyme activity: 16.08
Grans; P69 pancreatic CA
  enzyme activity: 16.21
Grans; P70 cirrhosis/hemobilia
  enzyme activity: 16.42
Grans; P71 ac. pyelonephritis
  enzyme activity: 11.07
Lymphs; J4 11/21/91 acute leuk.
  enzyme activity: 2.72
Lymphs; J4 12/2/91 AL
  enzyme activity: 3.80
Lymphs; J4 12/3/91 acute leuk.
  enzyme activity: 4.17
Lymphs; J5 11/27/91 AML
  enzyme activity: 3.40
Lymphs; J19 11/27/91 CLL
  enzyme activity: 1.73
Lymphs; J22 12/2/91 AML
  enzyme activity: 1.73
Lymphs; J22 12/9/91 AML
  enzyme activity: 3.01
Lymphs; N99° normal
  enzyme activity: 5.55
Lymphs; N191 normal
  enzyme activity: 4.14
Lymphs; N192 normal
  enzyme activity: 3.00
Lymphs; N193 normal
  enzyme activity: 3.00
Lymphs; N194 normal
  enzyme activity: 5.22
Lymphs; N195 normal
  enzyme activity: 5.24
Lymphs; N197 normal
  enzyme activity: 5.97
Lymphs; N200 normal
  enzyme activity: 5.38
Lymphs; N201 normal
  enzyme activity: 6.53
Lymphs; N202 normal
  enzyme activity: 6.61
Lymphs; N206 normal
  enzyme activity: 7.09
Lymphs; P68 tachycardia
  enzyme activity: 5.92
Lymphs; P69 pancreatic CA
  enzyme activity: 6.80
Lymphs; P70 cirrhosis/hemobilia
  enzyme activity: 6.68
Lymphs; P71 ac. pyelonephritis
  enzyme activity: 3.55

## CC(C)C[C@H](N)C(=O)NCC(=O)Nc1ccc2c(c1)Oc1cc(NC(=O)CNC(=O)[C@@H](N)CC(C)C)ccc1C21OC(=O)c2ccccc21 [LG]
Grans; J4 11/21/91 acute leuk.
  enzyme activity: 0.85
Grans; J4 12/2/91 AL
  enzyme activity: 0.79
Grans; J4 12/3/91 acute leuk.
  enzyme activity: 1.06
Grans; J5 11/27/91 AML
  enzyme activity: 2.51
Grans; J19 11/27/91 CLL
  enzyme activity: 36.35
Grans; J22 12/2/91 AML
  enzyme activity: 1.56
Grans; J22 12/9/91 AML
  enzyme activity: 1.94
Grans; N99° normal
  enzyme activity: 2.022
Grans; N191 normal
  enzyme activity: 5.37
Grans; N192 normal
  enzyme activity: 6.78
Grans; N193 normal
  enzyme activity: 3.65
Grans; N194 normal
  enzyme activity: 3.52
Grans; N195 normal
  enzyme activity: 4.11
Grans; N197 normal
  enzyme activity: 4.41
Grans; N200 normal
  enzyme activity: 3.40
Grans; N201 normal
  enzyme activity: 3.14
Grans; N202 normal
  enzyme activity: 2.70
Grans; N206 normal
  enzyme activity: 6.01
Grans; P68 tachycardia
  enzyme activity: 2.52
Grans; P69 pancreatic CA
  enzyme activity: 3.53
Grans; P70 cirrhosis/hemobilia
  enzyme activity: 2.20
Grans; P71 ac. pyelonephritis
  enzyme activity: 4.00
Lymphs; J4 11/21/91 acute leuk.
  enzyme activity: 0.16
Lymphs; J4 12/2/91 AL
  enzyme activity: 0.18
Lymphs; J4 12/3/91 acute leuk.
  enzyme activity: 0.19
Lymphs; J5 11/27/91 AML
  enzyme activity: 0.23
Lymphs; J19 11/27/91 CLL
  enzyme activity: 0.02
Lymphs; J22 12/2/91 AML
  enzyme activity: 0.02
Lymphs; J22 12/9/91 AML
  enzyme activity: 0.61
Lymphs; N99° normal
  enzyme activity: 0.85
Lymphs; N191 normal
  enzyme activity: 2.42
Lymphs; N192 normal
  enzyme activity: 3.45
Lymphs; N193 normal
  enzyme activity: 1.56
Lymphs; N194 normal
  enzyme activity: 2.06
Lymphs; N195 normal
  enzyme activity: 1.93
Lymphs; N197 normal
  enzyme activity: 1.79
Lymphs; N200 normal
  enzyme activity: 1.55
Lymphs; N201 normal
  enzyme activity: 1.57
Lymphs; N202 normal
  enzyme activity: 1.28
Lymphs; N206 normal
  enzyme activity: 3.12
Lymphs; P68 tachycardia
  enzyme activity: 0.78
Lymphs; P69 pancreatic CA
  enzyme activity: 2.00
Lymphs; P70 cirrhosis/hemobilia
  enzyme activity: 0.79
Lymphs; P71 ac. pyelonephritis
  enzyme activity: 0.68

## NCCCC[C@H](N)C(=O)Nc1ccc2c(c1)Oc1cc(NC(=O)[C@@H](N)CCCCN)ccc1C21OC(=O)c2ccccc21 [LYS, (H--L--Lys)2 Rho 110-4TFA]
Grans; J4 11/21/91 acute leuk.
  enzyme activity: 3.01
Grans; J4 12/2/91 AL
  enzyme activity: 4.09
Grans; J4 12/3/91 acute leuk.
  enzyme activity: 3.19
Grans; J5 11/27/91 AML
  enzyme activity: 14.86
Grans; J19 11/27/91 CLL
  enzyme activity: 4.41
Grans; J22 12/2/91 AML
  enzyme activity: 1.41
Grans; J22 12/9/91 AML
  enzyme activity: 1.90
Grans; N99° normal
  enzyme activity: 0.95
Grans; N191 normal
  enzyme activity: 1.20
Grans; N192 normal
  enzyme activity: 1.20
Grans; N193 normal
  enzyme activity: 1.43
Grans; N194 normal
  enzyme activity: 1.56
Grans; N195 normal
  enzyme activity: 2.53
Grans; N197 normal
  enzyme activity: 1.59
Grans; N200 normal
  enzyme activity: 1.46
Grans; N201 normal
  enzyme activity: 2.06
Grans; N202 normal
  enzyme activity: 13.22
Grans; N206 normal
  enzyme activity: 3.11
Grans; P68 tachycardia
  enzyme activity: 3.09
Grans; P69 pancreatic CA
  enzyme activity: 2.14
Grans; P70 cirrhosis/hemobilia
  enzyme activity: 2.33
Grans; P71 ac. pyelonephritis
  enzyme activity: 4.17
Lymphs; J4 11/21/91 acute leuk.
  enzyme activity: 0.77
Lymphs; J4 12/2/91 AL
  enzyme activity: 1.81
Lymphs; J4 12/3/91 acute leuk.
  enzyme activity: 1.64
Lymphs; J5 11/27/91 AML
  enzyme activity: 5.71
Lymphs; J19 11/27/91 CLL
  enzyme activity: 0.98
Lymphs; J22 12/2/91 AML
  enzyme activity: 0.74
Lymphs; J22 12/9/91 AML
  enzyme activity: 1.20
Lymphs; N99° normal
  enzyme activity: 0.33
Lymphs; N191 normal
  enzyme activity: 1.18
Lymphs; N192 normal
  enzyme activity: 0.56
Lymphs; N193 normal
  enzyme activity: 0.52
Lymphs; N194 normal
  enzyme activity: 0.93
Lymphs; N195 normal
  enzyme activity: 1.07
Lymphs; N197 normal
  enzyme activity: 0.70
Lymphs; N200 normal
  enzyme activity: 0.90
Lymphs; N201 normal
  enzyme activity: 1.05
Lymphs; N202 normal
  enzyme activity: 0.71
Lymphs; N206 normal
  enzyme activity: 1.65
Lymphs; P68 tachycardia
  enzyme activity: 1.51
Lymphs; P69 pancreatic CA
  enzyme activity: 1.22
Lymphs; P70 cirrhosis/hemobilia
  enzyme activity: 1.02
Lymphs; P71 ac. pyelonephritis
  enzyme activity: 0.91

## NC(=O)CC[C@H](N)C(=O)N[C@@H](CO)C(=O)Nc1ccc2c(c1)Oc1cc(NC(=O)[C@H](CO)NC(=O)[C@@H](N)CCC(N)=O)ccc1C21OC(=O)c2ccccc21 [QS, (H--L--Gln--Ser)2 Rho 110-2TFA]
Grans; J4 11/21/91 acute leuk.
  enzyme activity: 0.22
Grans; J4 12/2/91 AL
  enzyme activity: 0.44
Grans; J4 12/3/91 acute leuk.
  enzyme activity: 0.19
Grans; J5 11/27/91 AML
  enzyme activity: 1.24
Grans; J19 11/27/91 CLL
  enzyme activity: 1.16
Grans; J22 12/2/91 AML
  enzyme activity: 0.10
Grans; J22 12/9/91 AML
  enzyme activity: 0.24
Grans; N99° normal
  enzyme activity: 0.05
Grans; N191 normal
  enzyme activity: 0.19
Grans; N192 normal
  enzyme activity: 0.15
Grans; N193 normal
  enzyme activity: 0.14
Grans; N194 normal
  enzyme activity: 0.07
Grans; N195 normal
  enzyme activity: 0.21
Grans; N197 normal
  enzyme activity: 0.24
Grans; N200 normal
  enzyme activity: 0.06
Grans; N201 normal
  enzyme activity: 0.09
Grans; N202 normal
  enzyme activity: 0.08
Grans; N206 normal
  enzyme activity: 0.27
Grans; P68 tachycardia
  enzyme activity: 0.33
Grans; P69 pancreatic CA
  enzyme activity: 0.37
Grans; P70 cirrhosis/hemobilia
  enzyme activity: 0.19
Grans; P71 ac. pyelonephritis
  enzyme activity: 0.51
Lymphs; J4 11/21/91 acute leuk.
  enzyme activity: 0.05
Lymphs; J4 12/2/91 AL
  enzyme activity: 0.01
Lymphs; J4 12/3/91 acute leuk.
  enzyme activity: 0.06
Lymphs; J5 11/27/91 AML
  enzyme activity: 0.07
Lymphs; J19 11/27/91 CLL
  enzyme activity: 0.06
Lymphs; J22 12/2/91 AML
  enzyme activity: 0.02
Lymphs; J22 12/9/91 AML
  enzyme activity: 0.02
Lymphs; N99° normal
  enzyme activity: 0.02
Lymphs; N191 normal
  enzyme activity: 0.02
Lymphs; N192 normal
  enzyme activity: 0.03
Lymphs; N193 normal
  enzyme activity: 0.03
Lymphs; N194 normal
  enzyme activity: 0.02
Lymphs; N195 normal
  enzyme activity: 0.04
Lymphs; N197 normal
  enzyme activity: 0.06
Lymphs; N200 normal
  enzyme activity: 0.01
Lymphs; N201 normal
  enzyme activity: 0.02
Lymphs; N202 normal
  enzyme activity: 0.01
Lymphs; N206 normal
  enzyme activity: 0.04
Lymphs; P68 tachycardia
  enzyme activity: 0.02
Lymphs; P69 pancreatic CA
  enzyme activity: 0.31
Lymphs; P70 cirrhosis/hemobilia
  enzyme activity: 0.04
Lymphs; P71 ac. pyelonephritis
  enzyme activity: 0.05
